Consider 13 compounds from patent publication US4983740A, “Process for 1,4-dihydropyridine compounds” (Adir et Compagnie, priority 1986, dated 1991).

For assay [1], the system named is rat aorta. The assay is described as follows: In vitro activity in rat aorta stimulated by potassium ions. It is filed as cell-based, rat (male Wistar). The settings on record: 1 h; rat aorta rings, KCl 80 mM stimulation, cumulative doses at 60 minutes intervals. How it is done:
Determination of the Vitro Activity in Rat Aorta Stimulated by Potassium Ions
This trial was carried out using isolated organs removed from male Wistar rats weighing 300 to 400 g, kept under a water diet 18 hours before sacrificing.
After quickly sacrificing the animal, the aorta (at the level of the arch of the aorta) is removed and dissected into 2 mm-long rings; the endothelium is removed mechanically. After an equilibration period of 1 hour in a physiological solution consisting of (mM): NaCl 112, KCl 5, KH2 PO4 1, MgSO4 1.2, CaCl2 2.5, NaHCO3 25 and glucose 11.5, the preparations are stimulated with a potassium-rich solution. The latter consists of (mM):NaCl 37, KCl 80, KH2 PO4 1, MgSO4 1.2, CaCl2 2.5, NaHCO3 25 and glucose 11.5. This solution has a pH of 7.4 at 37° C.
After 15 minutes of stabilization, the compounds to be tested are then added (sample volume 0.2 ml) at cumulative doses at 60 minutes intervals. From the relaxation values obtained, it is possible to construct a doseresponse curve, leading to the calculation of an IC50 value (expressed in M).

The subject of assay [2] is conscious spontaneous hypertensive rats (SHR). Briefly: Short-term studies in conscious spontaneous hypertensive rats (oral, systolic arterial pressure). In kind it is in vivo, rat (SHR). The settings on record: 3 mg/kg. How it is done:
Short-term Studies in Conscious Spontaneous Hypertensive Rats (SHR)
Male spontaneous hypertensive rats weighing 270 to 320 g, aged 16 to 24 weeks, are anesthetized with ether. A polyethylene catheter is introduced into the femoral artery and moved forward to the level of the tail. The pressure in the femoral artery is recorded with a Statham® P23 sensor, on a Gould® 2400 recorder. The animals are treated at least one hour after the operation. The compounds are administered orally, in the dissolved form. The doses administered are expressed in mg/kg of base. The compounds of the invention were compared with amlodipine and with another 1,4-dihydropyridine derivative reference compound, nifedipine.

Assay [3] has as its system conscious dogs with renal hypertension. Briefly: Study in conscious dogs with renal hypertension (oral, mean arterial pressure). It is filed as in vivo, dog (Mongol). The settings on record: digestive route. The source says: Study in Conscious Dogs with Renal Hypertension
Mongol dogs weighing 20 to 25 kg are used. A Silastic® catheter, inserted under anesthesia at the level of the abdominal aorta, left in position permanently, enables the arterial pressure to be determined subsequently in the conscious animal.
Arterial hypertension is induced by a second operation, under anesthesia, consisting in constricting the left renal artery with a clip, decreasing the flow rate therein by approximately 70%, the left kidney is also covered with a latex capsule in order to restrict circulatory compensations; the contralateral kidney is left in position.
The systolic, diastolic and mean arterial pressures are determined with a Statham® P23 pressure sensor attached to the Silastic® catheter and connected to a Gould® "pressure-processor". The compounds are tested in animals which became hypertensive in the conscious state at least one week after the second operation. The arterial pressure is continuously recorded up to 7 hours after the treatment and then at 24 hours.
The compounds to be tested are administered by the digestive route through gastric tubing, in the form of a solution which may be aqueous, aqueous/alcoholic and the like, depending on the solubility of the products.
The doses administered are expressed in mg base per body weight kg.

pIC50: −log10 of the molar value. Counter-ions that a name gives are not always drawn.

For `CCOC(=O)C1=C(COCCOCCN)NC(C)=C(C(=O)OC)C1c1cccc2c1OCO2` (racemic) [EXAMPLE 2, (4R,S)-2-{[2-(2-Aminoethoxy)ethoxy]methyl}-3-ethoxycarbonyl-5-methoxycarbonyl-6-methyl-4-(2,3-methylenedioxyphenyl)-1,4-dihydropyridine], in assay [1], the negative-log IC50 (pIC50) is 7.52. For the same compound, in assay [2], the “Systolic arterial pressure after treatment, Δ mm Hg, 4 h” value is on record as -13 mm Hg and the “Systolic arterial pressure after treatment, Δ mm Hg, 6 h” value is -16 mm Hg.

In the case of `CCOC(=O)C1=C(COCCOCCN)NC(C)=C(C(=O)OC)C1c1ccccc1Cl` (racemic) [EXAMPLE 5, (4R,S)-2-{[2-(2-Aminoethoxy)ethoxy]methyl}-4-(2-chlorophenyl)-3-ethoxycarbonyl-5-methoxycarbonyl-6-methyl-1,4-dihydropyridine fumarate], the negative logarithm of the IC50 (pIC50) in assay [1] was 7.19. For the same compound, in assay [2], the “Systolic arterial pressure after treatment, Δ mm Hg, 4 h” value was -49 mm Hg; the “Systolic arterial pressure after treatment, Δ mm Hg, 6 h” value is recorded as -49 mm Hg; the “Systolic arterial pressure after treatment, Δ mm Hg, 24 h” value is -22 mm Hg. In addition, in assay [3] (0.5 mg/kg), the “Mean arterial pressure after treatment, Δ mm Hg, 4 h” value is recorded as -32 mm Hg and the “Mean arterial pressure after treatment, Δ mm Hg, 7 h” value was -25 mm Hg. Also, in assay [3] (1.0 mg/kg), the “Mean arterial pressure after treatment, Δ mm Hg, 4 h” value is reported as -48 mm Hg; the “Mean arterial pressure after treatment, Δ mm Hg, 7 h” value is recorded as -39 mm Hg; the “Mean arterial pressure after treatment, Δ mm Hg, 24 h” value is recorded as -10 mm Hg.

Consider `CCOC(=O)C1=C(COCCOCCN(C)Cc2ccccc2)NC(C)=C(C(=O)OC)C1c1ccccc1Cl` (racemic) [EXAMPLE 7, (4R,S)-2-[{2-[2-(N-Methyl-N-benzylamino)ethoxy]ethoxy}-methyl]-4-(2-chlorophenyl)-3-ethoxycarbonyl-5-methoxycarbonyl-6-methyl-1,4-dihydropyridine tartrate], for which the pIC50 in assay [1] was 8.40. In addition, in assay [2], the “Systolic arterial pressure after treatment, Δ mm Hg, 4 h” value was -22 mm Hg; the “Systolic arterial pressure after treatment, Δ mm Hg, 6 h” value is -16 mm Hg; the “Systolic arterial pressure after treatment, Δ mm Hg, 24 h” value is given as -8 mm Hg. In addition, in assay [3] (0.5 mg/kg), the “Mean arterial pressure after treatment, Δ mm Hg, 4 h” value was -7 mm Hg; the “Mean arterial pressure after treatment, Δ mm Hg, 7 h” value is -3 mm Hg; the “Mean arterial pressure after treatment, Δ mm Hg, 24 h” value stood at 0 mm Hg.

In turn, `C=CCN(CC=C)CCOCCOCC1=C(C(=O)OCC)C(c2ccccc2Cl)C(C(=O)OC)=C(C)N1` (racemic) [EXAMPLE 8, (4R,S)-4-(2-Chlorophenyl)-2-[{2-[2-(N,N-diallylamino)ethoxy]ethoxy}methyl]-3-ethoxycarbonyl-5-methoxycarbonyl-6-methyl-1,4-dihydropyridine hemifumarate] gave a pIC50 in assay [1] of 8.19. Moreover, in assay [2], the “Systolic arterial pressure after treatment, Δ mm Hg, 4 h” value is recorded as -21 mm Hg and the “Systolic arterial pressure after treatment, Δ mm Hg, 6 h” value is reported as -19 mm Hg.

The compound `CCOC(=O)C1=C(CCCCCCCN)NC(C)=C(C(=O)OC)C1c1ccccc1Cl` (racemic) [EXAMPLE 12, (4R,S)-2-(7-Aminoheptyl)-4-(2-chlorophenyl)-3-ethoxycarbonyl-5-methoxycarbonyl-6-methyl-1,4-dihydropyridine fumarate] gave a negative logarithm of the IC50 (pIC50) in assay [1] of 7.60. In assay [2], the “Systolic arterial pressure after treatment, Δ mm Hg, 4 h” value is -23 mm Hg; the “Systolic arterial pressure after treatment, Δ mm Hg, 6 h” value is -30 mm Hg; the “Systolic arterial pressure after treatment, Δ mm Hg, 24 h” value was -21 mm Hg. Further, in assay [3] (2.0 mg/kg), the “Mean arterial pressure after treatment, Δ mm Hg, 4 h” value is reported as -22 mm Hg and the “Mean arterial pressure after treatment, Δ mm Hg, 7 h” value is listed as -32 mm Hg.

Consider `CCCNCCOCCOCC1=C(C(=O)OCC)C(c2c(F)c(F)c(F)c(F)c2F)C(C(=O)OC)=C(C)N1` (racemic) [EXAMPLE 34, (4R,S)-3-Ethoxycarbonyl-5-methoxycarbonyl-6-methyl-4-pentafluorophenyl-2-[{2-[2-(N-propylamino)ethoxy]ethoxy}-methyl]-1,4-dihydropyridine fumarate], for which the negative logarithm of the IC50 (pIC50) in assay [1] is 8.96.

For the compound `COC(=O)C1=C(C)NC(COCCOCCN)=C(C(=O)OC(C)C)C1c1cccc(C(F)(F)F)c1Cl` (racemic) [EXAMPLE 35, (4R,S)-2-{[2-(2-Aminoethoxy)ethoxy]methyl}-4-(2-chloro-3-trifluoromethylphenyl)-3-isopropoxycarbonyl-5-methoxycarbonyl-6-methyl-1,4-dihydropyridine tartrate], the pIC50 in assay [1] is 7.68.

`COC(=O)C1=C(C)NC(COCCOCCN)=C(C(=O)OCCCC(C2CC2)C2CC2)C1c1cccc(C(F)(F)F)c1Cl` (racemic) [EXAMPLE 36, (4R,S)-2-{[2-(2-Aminoethoxy)ethoxy]methyl}-4-(2-chloro-3-trifluoromethylphenyl)-3-(4,4-dicyclopropylbutyloxycarbonyl)-5-methoxycarbonyl-6-methyl-1,4-dihydropyridine fumarate] showed a negative-log IC50 (pIC50) in assay [1] of 6.33.

In the case of `COC(=O)C1=C(C)NC(COCCOCCN)=C(C(=O)OCC(C)C)C1c1cccc(C(F)(F)F)c1Cl` (racemic) [EXAMPLE 38, (4R,S)-2-{[2-(2-Aminoethoxy)ethoxy]methyl}-4-(2-chloro-3-trifluoromethylphenyl)-3-isobutyloxycarbonyl-5-methoxycarbonyl-6-methyl-1,4-dihydropyridine fumarate], in assay [1], the pIC50 was 7.21.

Turning to `C=C(C)COC(=O)C1=C(COCCOCCN)NC(C)=C(C(=O)OC)C1c1cccc(Cl)c1Cl` (racemic) [EXAMPLE 39, (4R,S)-2-{[2-(2-Aminoethoxy)ethoxy]methyl}-4-(2,3-dichlorophenyl)-3-[(2-methyl-2-propenyl)oxycarbonyl]-5-methoxycarbonyl-6-methyl-1,4-dihydropyridine fumarate], in assay [1], the negative logarithm of the IC50 (pIC50) is 7.10.

The compound `COC(=O)C1=C(C)NC(COCCOCCN)=C(C(=O)OC/C=C/C(C2CC2)C2CC2)C1c1cccc(Cl)c1Cl` [EXAMPLE 29, (4R,S)-2-{[2-(2-Aminoethoxy)ethoxy]methyl}-4-(2,3-dichlorophenyl)-3-{[(E)-4,4-dicyclopropyl-2-butene]-oxycarbonyl}-5-methoxycarbonyl-6-methyl-1,4-dihydropyridine tartrate] gave a pIC50 in assay [1] of 7.12.

In the case of `COC(=O)C1=C(C)NC(COCCOCCN)=C(C(=O)OC/C=C/C(C2CC2)C2CC2)C1c1cccc(C(F)(F)F)c1Cl` [EXAMPLE 37, (4R,S)-2-{[2-(2-Aminoethoxy)ethoxy]methyl}-4-(2-chloro-3-trifluoromethylphenyl)-3-{[(E)-4,4-dicyclopropyl-2-butene]oxycarbonyl}-5-methoxycarbonyl-6-methyl-1,4-dihydropyridine fumarate], the pIC50 in assay [1] was 6.46.

For the compound `COC(=O)C1=C(C)NC(C)=C(C(=O)OC)C1c1ccccc1[N+](=O)[O-]` [NIFEDIPINE, nifedipine, reference compound], in assay [2], the “Systolic arterial pressure after treatment, Δ mm Hg, 4 h” value was -19 mm Hg and the “Systolic arterial pressure after treatment, Δ mm Hg, 6 h” value is given as -25 mm Hg.

Usually pIC50 stands for the IC50 on a negative log10 scale, so that one unit is a factor of ten.
